Consider three compounds from ChEMBL document CHEMBL1201862, “PubChem BioAssay data set” (2004).

Activity calls are given as the source filed them. For most assays here, no stated cut-off is given here; in the data, actives have a measured IC50 and inactives only a lower limit.

Holding throughout (format): functional
Assay [1] has as its target T1, Sentrin-specific protease 8 (Homo sapiens, UniProt Q96LD8).
T1 sequence (Q96LD8 whole entry): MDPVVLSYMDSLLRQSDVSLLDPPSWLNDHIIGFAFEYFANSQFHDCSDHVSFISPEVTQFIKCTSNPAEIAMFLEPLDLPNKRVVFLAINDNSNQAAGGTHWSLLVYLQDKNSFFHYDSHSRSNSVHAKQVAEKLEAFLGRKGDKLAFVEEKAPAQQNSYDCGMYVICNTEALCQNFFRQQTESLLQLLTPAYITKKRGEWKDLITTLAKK
Nature of the assay: SENP8 protease inhibitors, SAR follow-up, biochemical, luminescence (AID 504501).

The target in the next assay is T2, Caspase-3 (Homo sapiens, UniProt P42574).
T2 sequence (P42574 whole entry): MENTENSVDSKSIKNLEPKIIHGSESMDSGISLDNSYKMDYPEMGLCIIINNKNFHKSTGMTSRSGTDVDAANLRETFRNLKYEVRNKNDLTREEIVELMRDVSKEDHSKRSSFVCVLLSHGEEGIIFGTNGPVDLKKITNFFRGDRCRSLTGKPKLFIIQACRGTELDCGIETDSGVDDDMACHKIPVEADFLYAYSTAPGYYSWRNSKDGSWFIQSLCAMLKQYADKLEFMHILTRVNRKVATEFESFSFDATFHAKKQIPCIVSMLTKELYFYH
Put plainly: SAR Analysis of small molecule inhibitors of Sentrin-specific proteases (SENPs) using a Caspase-3 Selectivity assay. [Related pubchem assays (depositor defined):AID2540, AID2599, AID434973, AID489001].

The target of assay [2] is T3, Sentrin-specific protease 6 (Homo sapiens, UniProt Q9GZR1).
T3 sequence (Q9GZR1 whole entry): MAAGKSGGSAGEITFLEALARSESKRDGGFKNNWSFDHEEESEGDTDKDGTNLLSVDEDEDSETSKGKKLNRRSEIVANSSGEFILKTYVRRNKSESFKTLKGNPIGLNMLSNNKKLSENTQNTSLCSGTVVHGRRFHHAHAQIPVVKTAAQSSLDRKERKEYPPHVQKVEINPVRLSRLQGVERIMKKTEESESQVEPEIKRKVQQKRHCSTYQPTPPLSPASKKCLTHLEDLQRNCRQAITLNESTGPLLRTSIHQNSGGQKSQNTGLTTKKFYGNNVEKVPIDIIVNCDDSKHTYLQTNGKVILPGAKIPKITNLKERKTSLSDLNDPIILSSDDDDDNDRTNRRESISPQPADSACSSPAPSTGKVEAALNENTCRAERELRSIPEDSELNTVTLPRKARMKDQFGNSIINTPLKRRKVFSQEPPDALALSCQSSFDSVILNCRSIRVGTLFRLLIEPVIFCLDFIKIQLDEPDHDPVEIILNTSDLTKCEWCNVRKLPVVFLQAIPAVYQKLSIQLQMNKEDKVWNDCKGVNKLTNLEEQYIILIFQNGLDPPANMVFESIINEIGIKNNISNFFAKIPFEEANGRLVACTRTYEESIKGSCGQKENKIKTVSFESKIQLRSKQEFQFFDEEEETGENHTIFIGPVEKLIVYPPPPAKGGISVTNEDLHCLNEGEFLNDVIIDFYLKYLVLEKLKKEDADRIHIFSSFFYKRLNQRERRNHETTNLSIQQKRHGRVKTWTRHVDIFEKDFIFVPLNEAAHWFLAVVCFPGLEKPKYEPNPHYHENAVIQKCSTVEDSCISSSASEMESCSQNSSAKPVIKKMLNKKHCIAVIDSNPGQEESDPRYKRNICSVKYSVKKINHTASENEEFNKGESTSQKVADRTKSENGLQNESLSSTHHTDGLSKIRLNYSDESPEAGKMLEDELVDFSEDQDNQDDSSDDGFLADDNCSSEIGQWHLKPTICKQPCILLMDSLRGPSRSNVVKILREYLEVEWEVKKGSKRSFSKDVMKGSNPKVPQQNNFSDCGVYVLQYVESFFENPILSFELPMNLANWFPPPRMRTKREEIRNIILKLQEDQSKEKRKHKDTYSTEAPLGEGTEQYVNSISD
Nature of the assay: SAR Analysis of small molecule inhibitors of Sentrin-specific protease 6 (SENP6) using a Luminescent assay. [Related pubchem assays (depositor defined):AID2582, AID2599].

In assay [3] the target is T4, Sentrin-specific protease 7 (Homo sapiens, UniProt Q9BQF6).
T4 sequence (Q9BQF6 whole entry): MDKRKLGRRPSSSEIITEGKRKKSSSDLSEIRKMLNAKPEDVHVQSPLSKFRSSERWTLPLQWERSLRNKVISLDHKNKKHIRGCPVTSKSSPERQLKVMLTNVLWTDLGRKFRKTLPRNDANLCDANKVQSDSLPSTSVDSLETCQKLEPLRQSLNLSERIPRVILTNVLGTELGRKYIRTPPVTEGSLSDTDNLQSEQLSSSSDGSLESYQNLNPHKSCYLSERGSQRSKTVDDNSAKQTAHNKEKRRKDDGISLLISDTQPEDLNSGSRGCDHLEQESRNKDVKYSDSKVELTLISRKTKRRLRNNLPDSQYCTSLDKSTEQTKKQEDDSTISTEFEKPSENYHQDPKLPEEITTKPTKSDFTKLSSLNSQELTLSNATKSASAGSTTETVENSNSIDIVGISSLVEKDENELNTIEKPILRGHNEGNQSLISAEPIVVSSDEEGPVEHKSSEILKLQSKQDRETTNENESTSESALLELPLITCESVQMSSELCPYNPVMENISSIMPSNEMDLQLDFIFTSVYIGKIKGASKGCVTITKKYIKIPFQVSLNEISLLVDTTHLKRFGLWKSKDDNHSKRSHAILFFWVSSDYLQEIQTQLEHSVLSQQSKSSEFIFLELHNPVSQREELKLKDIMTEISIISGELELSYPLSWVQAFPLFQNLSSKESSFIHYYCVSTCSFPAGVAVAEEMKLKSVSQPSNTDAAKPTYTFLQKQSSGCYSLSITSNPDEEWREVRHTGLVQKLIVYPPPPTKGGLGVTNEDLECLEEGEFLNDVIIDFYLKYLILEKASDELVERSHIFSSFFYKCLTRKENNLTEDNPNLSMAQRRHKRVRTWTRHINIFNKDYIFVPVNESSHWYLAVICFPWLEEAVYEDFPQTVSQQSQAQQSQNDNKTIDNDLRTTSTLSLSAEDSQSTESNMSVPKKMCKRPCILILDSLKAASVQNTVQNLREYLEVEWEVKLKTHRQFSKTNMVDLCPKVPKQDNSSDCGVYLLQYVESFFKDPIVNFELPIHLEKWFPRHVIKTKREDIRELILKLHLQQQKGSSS
Nature of the assay: SENP7 protease inhibitors, SAR follow-up, biochemical, luminescence (AID 504497).

Assay [4] deals with Apoptotic protease-activating factor 1 (Homo sapiens, UniProt O14727).
For assay [5], the target named is T5, Corticotropin-releasing factor receptor 2/Corticotropin-releasing factor-binding protein (Homo sapiens, UniProt P24387+Q13324).
T5 sequence (Q13324 whole entry): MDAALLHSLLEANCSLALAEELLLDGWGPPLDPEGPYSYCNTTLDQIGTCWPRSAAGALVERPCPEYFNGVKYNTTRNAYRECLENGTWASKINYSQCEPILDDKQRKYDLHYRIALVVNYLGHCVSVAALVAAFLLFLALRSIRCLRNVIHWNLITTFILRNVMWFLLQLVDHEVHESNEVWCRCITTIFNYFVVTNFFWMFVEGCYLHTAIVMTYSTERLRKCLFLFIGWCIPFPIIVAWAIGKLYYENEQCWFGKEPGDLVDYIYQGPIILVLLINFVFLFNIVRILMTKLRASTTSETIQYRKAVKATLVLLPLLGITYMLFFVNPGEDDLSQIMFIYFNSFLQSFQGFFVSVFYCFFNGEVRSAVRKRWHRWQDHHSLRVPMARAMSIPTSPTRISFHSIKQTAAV
T5 sequence (P24387 whole entry): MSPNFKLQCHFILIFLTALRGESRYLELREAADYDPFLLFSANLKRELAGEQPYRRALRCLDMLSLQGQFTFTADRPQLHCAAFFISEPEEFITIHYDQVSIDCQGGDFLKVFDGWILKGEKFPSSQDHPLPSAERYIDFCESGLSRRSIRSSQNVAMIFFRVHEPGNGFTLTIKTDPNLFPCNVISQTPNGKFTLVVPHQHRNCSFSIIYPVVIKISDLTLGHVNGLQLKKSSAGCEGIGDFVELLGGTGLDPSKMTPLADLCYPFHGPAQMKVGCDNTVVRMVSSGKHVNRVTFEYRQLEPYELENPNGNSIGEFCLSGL
Nature of the assay: Dose Response confirmation of uHTS hits for small molecule antagonists of the CRF-binding protein and CRF-R2 receptor complex. To be noted: read-out: IC50_Mean.

The target in assay [6] is T5, Corticotropin-releasing factor receptor 2/Corticotropin-releasing factor-binding protein. Nature of the assay: activators of CRF receptor 2 with binding protein – uHTS hits, confirmation (AID 602473). To be noted: read-out: EC50_Mean.
The next assay concerns the target T6, Leucine aminopeptidase (Plasmodium falciparum 3D7, UniProt Q8IL11).
T6 sequence (Q8IL11 whole entry): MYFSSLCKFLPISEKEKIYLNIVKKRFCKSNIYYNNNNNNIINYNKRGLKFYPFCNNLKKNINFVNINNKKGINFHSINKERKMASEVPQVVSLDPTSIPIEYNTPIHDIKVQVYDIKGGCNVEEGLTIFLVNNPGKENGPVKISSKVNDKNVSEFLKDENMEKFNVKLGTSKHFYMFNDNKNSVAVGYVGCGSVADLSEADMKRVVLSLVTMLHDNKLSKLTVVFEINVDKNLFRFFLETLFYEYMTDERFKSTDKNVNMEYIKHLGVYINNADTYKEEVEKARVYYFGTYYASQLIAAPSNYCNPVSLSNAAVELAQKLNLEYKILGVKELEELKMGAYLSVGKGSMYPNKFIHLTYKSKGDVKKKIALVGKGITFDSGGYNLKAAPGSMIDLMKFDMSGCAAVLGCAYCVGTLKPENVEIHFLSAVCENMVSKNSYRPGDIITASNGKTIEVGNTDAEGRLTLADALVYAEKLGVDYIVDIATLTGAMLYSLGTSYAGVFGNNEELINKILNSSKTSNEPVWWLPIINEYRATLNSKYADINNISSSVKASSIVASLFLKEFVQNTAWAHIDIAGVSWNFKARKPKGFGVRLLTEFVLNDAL
Nature of the assay: P. falciparum M17LAP inhibitors, primary screen, biochemical, fluorogenic H-Leu-NHMec substrate, 1536-well (AID 1619).

In the next assay the target is Cysteine protease ATG4B (Homo sapiens, UniProt Q9Y4P1).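 Further: Fluorescence-based dose-response confirmation assay measuring inhibition of ATG4B activity.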
The next assay concerns the target Phospholipase A2 (Homo sapiens, UniProt P04054).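 Further: confirmatory dose-response counterscreen on phospholipase A2, testing hits that came from an ultra-high-throughput screen for ATG4B inhibitors.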

Sequence of Apoptotic protease-activating factor 1 (O14727 whole entry): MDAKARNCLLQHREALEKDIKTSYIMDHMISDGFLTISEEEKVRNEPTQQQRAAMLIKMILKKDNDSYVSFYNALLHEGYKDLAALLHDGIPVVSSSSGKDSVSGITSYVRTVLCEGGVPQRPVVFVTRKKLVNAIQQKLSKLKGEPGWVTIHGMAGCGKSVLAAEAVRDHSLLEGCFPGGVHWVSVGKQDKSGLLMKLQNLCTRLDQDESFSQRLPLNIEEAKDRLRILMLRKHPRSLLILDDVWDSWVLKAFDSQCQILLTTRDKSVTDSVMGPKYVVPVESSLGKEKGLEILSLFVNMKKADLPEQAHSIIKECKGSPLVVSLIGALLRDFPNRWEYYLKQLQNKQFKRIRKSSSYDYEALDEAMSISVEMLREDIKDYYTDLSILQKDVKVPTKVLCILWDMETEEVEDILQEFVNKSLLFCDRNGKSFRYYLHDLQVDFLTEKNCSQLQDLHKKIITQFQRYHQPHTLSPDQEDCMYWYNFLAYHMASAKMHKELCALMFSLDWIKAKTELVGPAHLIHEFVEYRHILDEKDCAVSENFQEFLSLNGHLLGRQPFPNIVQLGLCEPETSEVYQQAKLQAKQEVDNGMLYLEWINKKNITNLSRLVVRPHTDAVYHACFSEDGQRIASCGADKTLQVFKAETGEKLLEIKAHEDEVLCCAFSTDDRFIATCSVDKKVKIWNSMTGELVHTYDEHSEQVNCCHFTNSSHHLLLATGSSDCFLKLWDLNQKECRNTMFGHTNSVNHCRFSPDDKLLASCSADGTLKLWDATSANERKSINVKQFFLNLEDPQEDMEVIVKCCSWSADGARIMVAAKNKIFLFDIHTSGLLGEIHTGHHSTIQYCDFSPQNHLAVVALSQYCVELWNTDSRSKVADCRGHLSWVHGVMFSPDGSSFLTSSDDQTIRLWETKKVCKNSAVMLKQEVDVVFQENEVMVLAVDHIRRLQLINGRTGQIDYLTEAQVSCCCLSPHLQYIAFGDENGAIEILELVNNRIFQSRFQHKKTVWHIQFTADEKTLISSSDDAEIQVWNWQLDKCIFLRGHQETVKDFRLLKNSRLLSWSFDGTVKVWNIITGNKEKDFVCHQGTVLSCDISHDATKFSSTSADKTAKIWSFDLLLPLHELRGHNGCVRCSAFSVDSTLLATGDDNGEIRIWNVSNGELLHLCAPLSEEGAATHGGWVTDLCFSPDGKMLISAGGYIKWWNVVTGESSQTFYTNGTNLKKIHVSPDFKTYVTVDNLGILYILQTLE
Sequence of Cysteine protease ATG4B (Q9Y4P1 whole entry): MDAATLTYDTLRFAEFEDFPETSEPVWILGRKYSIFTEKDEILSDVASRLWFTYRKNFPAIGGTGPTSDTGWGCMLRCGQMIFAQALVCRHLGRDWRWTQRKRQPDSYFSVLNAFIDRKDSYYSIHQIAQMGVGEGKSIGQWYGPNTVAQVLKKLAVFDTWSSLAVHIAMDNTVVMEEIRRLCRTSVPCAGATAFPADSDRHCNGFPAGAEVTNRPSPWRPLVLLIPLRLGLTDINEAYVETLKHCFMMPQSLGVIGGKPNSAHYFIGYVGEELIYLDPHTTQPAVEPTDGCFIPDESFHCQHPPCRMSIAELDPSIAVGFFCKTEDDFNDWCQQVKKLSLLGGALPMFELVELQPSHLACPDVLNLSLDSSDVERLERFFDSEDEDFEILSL
Sequence of Phospholipase A2 (P04054 whole entry): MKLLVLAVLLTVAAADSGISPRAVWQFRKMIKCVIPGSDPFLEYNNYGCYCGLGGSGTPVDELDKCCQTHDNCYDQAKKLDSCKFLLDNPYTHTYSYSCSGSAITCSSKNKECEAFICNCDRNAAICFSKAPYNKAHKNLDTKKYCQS

Take `Oc1ccc(Br)cc1/C=N/Nc1cc(N2CCCC2)nc(N2CCCC2)n1`: the IC50 (in assay [1]; at Caspase-3; in [2]; in assay [3]) was > 99 µM (inactive) each time.

With `CCCCCn1c(=O)c(C(=O)Nc2c(C)n(C)n(-c3ccccc3)c2=O)c(O)c2ccccc21`, the values for the IC50 in assay [4] and in assay [5] were > 100 µM (inactive) and > 47.1 µM (inactive), respectively. In addition, the EC50 in assay [6] is > 53 µM (inactive).

In the case of `CCOc1cc(/C=C2/SC(=O)N(CC(=O)N3CCc4ccccc4C3)C2=O)ccc1OCC(=O)O`, the results for the IC50 on Leucine aminopeptidase, on Cysteine protease ATG4B and at Phospholipase A2 were 10.6 µM (active), 15 µM (active) and 11 µM (active), respectively.
